Measurements from US5585382A, “Polycyclic and heterocyclic chromophores for bis-imide tumoricidals” (The DuPont Merck Pharmaceutical Company, priority 1995, dated 1996).
Read-outs that look alike come from different tables or passages of the source.

Legend:
[1] = test system: Clone A human colon cancer cells; assay: In vitro growth inhibition of Clone A cells (MTT, 72 hr); assay type: cell-based; details: read-out: Clone A IC50
In short: (§1)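 Cells seeded on day 0 (1×10^3 L1210 or 8×10^2 Clone A per well), graded compound concentrations added on day 1, then 72 hr at 37 °C. MTT 4 h, formazan dissolved in acidic isopropanol, read at 570/630 nm; IC50 from curve fit as half-maximal inhibition of population doublings, eight replicates.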

[2] = test system: Murine leukemia L1210 cells; assay: In vitro growth inhibition of L1210 cells (MTT, 72 hr); assay type: cell-based; details: Mus musculus, read-out: L1210 IC50
In short: as §1

DLD-2 human colon tumor = assay: In vivo human tumor xenograft DLD-2 in nude mice; details: for Tumor Growth Inhibition activity against DLD-2 (in words): NCI criteria
Text: (§2) The DLD-2 human colon tumor and MX-1 human mammary carcinoma, were originally obtained from a surgically-removed primary colon carcinoma or breast tumor respectively. The human tumor lines were maintained by serial passage in athymic nude mice. The MX-1 human mammary carcinoma is an established tumor used by the NCI. The DLD-2 human colon tumor has been well characterized. (Dexter, D. L.; Spremulli, E. N.; Matook, G. M.; Diamond, I.; Calabresi, P. Cancer Research 1982, 42, 5010; Dexter, D. L.; Barbosa, J. A.; Calabresi, P. Cancer Research 1979, 39, 1020.)
(§3) The mice used in these experiments were outbred Swiss mice or CD-1 mice bearing the nude (nu/nu) gene. On Day 0, male and female mice weighing 22-30 g are inoculated with 0.2 mL of a 25% tumor mince. This mince is prepared by mincing fresh tumor tissue, grown subcutaneously in passage mice, in sterile physiological saline. Palpable tumors weighing approximately 50 mg appear in the mice within 7-10 days after inoculation. The mice are pair matched by tumor weight and sex into groups of ten each and the test compounds and vehicle control are administered intravenously (i.v.) once daily for nine consecutive days. A >20% decrease in body weight on Day 5 following compound administration is considered an indication of toxicity. Tumor measurements and body weights are recorded once a week. Fifteen to eighteen days after the initial injection the mice are weighed, sacrificed, and the tumors excised and weighed.
(§4) The efficacy of the test compounds is determined by the extent of tumor growth inhibition in treated versus vehicle-treated control mice. Initial tumor weights (mg) are calculated from the tumor dimensions (mm) obtained from caliper measurements, using the formula for a prolate ellipsoid (mg of tumor weight=(length×width^2)/2). Net tumor weights are calculated for each of the treated groups and the vehicle-treated control group by subtracting the initial tumor weight from the final tumor weight (Day 15-18). Results are expressed as a percentage decrease relative to the mean tumor weight for the control vehicle-treated group.
(§5) Tumor Growth Inhibition= [formula]
(§6) The evaluation criteria of the National Cancer Institute for activity in in vivo cancer models were used. Tumor growth inhibition of 58-89% against the various xenografts is considered moderate activity, and inhibition of ≥90% is considered good to excellent activity. Actual tumor regressions (IR=incomplete regression; FR=full regression) indicate excellent to outstanding activity.

[3] = test system: MX-1 human mammary carcinoma; assay: In vivo human tumor xenograft MX-1 in nude mice; details: for Tumor Growth Inhibition activity against MX-1 (in words): NCI criteria
Text: as §2, §3, §4, §5, §6

[4] = Mus musculus, DLD2, iv, 216 h, read-out: DLD-2 percent tumor growth inhibition
[5] = i.v. once daily for nine days, nude mice
[6] = Mus musculus, iv, 216 h, read-out: MX-1 tumor regressions, IR=incomplete regression

## CS(=O)(=O)O.O=C1c2cccc3c2c(cc2cccnc23)C(=O)N1CCCCNCCCN1C(=O)c2cccc3c2c(cc2cccnc23)C1=O [Example 1, 4-[3-(5-Azaphenanthrene-1,10-dicarboximido)propylamino]-1-(5-azaphenanthrene-1,10-dicarboximido) butane Hydromethanesulfonate]
[1]; Clone A cells, 72 hr, MTT
  IC50: 0.06 µg/mL
[2]; L1210 cells, 72 hr, MTT
  IC50: 0.134 µg/mL
DLD-2 human colon tumor; Mus musculus, DLD2, iv, 216 h, 25 mg/kg, i.v. once daily for nine days, nude mice, read-out: DLD-2 percent tumor growth inhibition
  inhibition in vivo at 25 mg/kg: 16%
Solubility in water
  solubility: 2300 µg/mL

## O=C1c2cc([N+](=O)[O-])cc3c2c(cc2cccnc23)C(=O)N1CCNCCN1C(=O)c2cc([N+](=O)[O-])cc3c2c(cc2cccnc23)C1=O [Example 2, 2-[3-(3-Nitro-5-azaphenanthrene-1,10-dicarboximido)ethylamino]-1-(3-nitro-5-azaphenanthrene-1, 10-dicarboximido)ethane Hydromethanesulfonate]
[1]; Clone A cells, 72 hr, MTT
  IC50: 0.044 µg/mL
[2]; L1210 cells, 72 hr, MTT
  IC50: 0.02 µg/mL
DLD-2 human colon tumor; Mus musculus, DLD2, iv, 216 h, 12.5 mg/kg, i.v. once daily for nine days, nude mice, read-out: DLD-2 percent tumor growth inhibition
  inhibition in vivo at 12.5 mg/kg: 0%
Solubility in water
  solubility: 10 µg/mL

## CS(=O)(=O)O.O=C1c2cc([N+](=O)[O-])cc3c2c(cc2cccnc23)C(=O)N1CCCNCCN1C(=O)c2cc([N+](=O)[O-])cc3c2c(cc2cccnc23)C1=O [Example 3, 3-[2-(3-Nitro-5-azaphenanthrene-1,10-dicarboximido)ethylamino]-1-(3-nitro-5-azaphenanthrene-1, 10-dicarboximido) propane Hydromethanesulfonate]
[1]; 72 h
  IC50: 0.004 µg/mL
[2]; L1210, 72 h
  IC50: 0.006 µg/mL
DLD-2 human colon tumor; [4]
  inhibition in vivo at 20 mg/kg: 92%
DLD-2 human colon tumor; [5]
  Tumor Growth Inhibition activity against DLD-2 (in words): moderate to excellent
Solubility in water
  solubility: 80 µg/mL

## CS(=O)(=O)O.O=C1c2cc([N+](=O)[O-])cc3c2c(cc2cccnc23)C(=O)N1CCCNCCCN1C(=O)c2cc([N+](=O)[O-])cc3c2c(cc2cccnc23)C1=O [Example 4, 3-[3-(3-Nitro-5-azaphenanthrene-1,10-dicarboximido)propylamino]-1-(3-nitro-5-azaphenanthrene-1, 10-dicarboximido)propane Hydromethanesulfonate]
[1]; 72 h
  IC50: 0.005 µg/mL
[2]; L1210, 72 h
  IC50: 0.011 µg/mL
DLD-2 human colon tumor; [4]
  inhibition in vivo at 10 mg/kg: 57%
Solubility in water
  solubility: 450 µg/mL

## CS(=O)(=O)O.O=C1c2cc([N+](=O)[O-])cc3c2c(cc2cccnc23)C(=O)N1CCCCNCCCN1C(=O)c2cc([N+](=O)[O-])cc3c2c(cc2cccnc23)C1=O [Example 5, 4-[3-(3-Nitro-5-azaphenanthrene-1, 10-dicarboximido)propylamino]-1-(3-nitro-5-azaphenanthrene-1, 10-dicarboximido)butane Hydromethanesulfonate]
[1]; 72 h
  IC50: 0.013 µg/mL
[2]; L1210, 72 h
  IC50: 0.006 µg/mL
DLD-2 human colon tumor; [4]
  inhibition in vivo at 10 mg/kg: 82%
DLD-2 human colon tumor; [5]
  Tumor Growth Inhibition activity against DLD-2 (in words): moderate to excellent
Solubility in water
  solubility: 60 µg/mL

## CS(=O)(=O)O.CS(=O)(=O)O.C[C@@H](CNCCNC[C@H](C)N1C(=O)c2cc([N+](=O)[O-])cc3c2c(cc2cccnc23)C1=O)N1C(=O)c2cc([N+](=O)[O-])cc3c2c(cc2cccnc23)C1=O [Example 7, (S,S)-1,2-bis-[2-(3-Nitro-5-azaphenanthrene-1,10-dicarboximido)propylamino]ethane Dihydromethanesulfonate]
[1]; 72 h
  IC50: 0.028 µg/mL
[2]; L1210, 72 h
  IC50: 0.048 µg/mL
DLD-2 human colon tumor; [4]
  inhibition in vivo at 12.5 mg/kg: 83%
DLD-2 human colon tumor; [5]
  Tumor Growth Inhibition activity against DLD-2 (in words): moderate to excellent
Solubility in water
  solubility: 680 µg/mL

## CS(=O)(=O)O.CS(=O)(=O)O.C[C@H](CNCCNC[C@@H](C)N1C(=O)c2cc([N+](=O)[O-])cc3c2c(cc2cccnc23)C1=O)N1C(=O)c2cc([N+](=O)[O-])cc3c2c(cc2cccnc23)C1=O [Example 8, (R,R)-1,2-bis-[2-(3-Nitro-5-azaphenanthrene-1,10-dicarboximido)propylamino]ethane Dihydromethanesulfonate]
[3]; 5 mg/kg, i.v. once daily for nine days, nude mice
  MX-1 tumor regressions, FR=full regression: 2/9
[3]; [6]
  responders at 5 mg/kg: 77.8%
[3]; [5]
  Tumor Growth Inhibition activity against MX-1 (in words): moderate to excellent
[1]; 72 h
  IC50: 0.008 µg/mL
[2]; L1210, 72 h
  IC50: 0.03 µg/mL
DLD-2 human colon tumor; 10 mg/kg, i.v. once daily for nine days, nude mice
  DLD-2 tumor regressions, IR=incomplete regression: 2/9
DLD-2 human colon tumor; [4]
  inhibition in vivo at 10 mg/kg: 95%
DLD-2 human colon tumor; [5]
  Tumor Growth Inhibition activity against DLD-2 (in words): moderate to excellent
Solubility in water
  solubility: 4000 µg/mL

## CS(=O)(=O)O.O=C1c2cccc3c2c(cc2ncccc23)C(=O)N1CCCCNCCCN1C(=O)c2cccc3c2c(cc2ncccc23)C1=O [Example 17, 4-[3-(8-Azaphenanthrene-1,10-dicarboximido)propylamino]-1-(8-azaphenanthrene-1,10-dicarboximido) butane Hydromethanesulfonate]
[1]; Clone A cells, 72 hr, MTT
  IC50: 0.001 µg/mL
[2]; L1210 cells, 72 hr, MTT
  IC50: 0.001 µg/mL
DLD-2 human colon tumor; Mus musculus, DLD2, iv, 216 h, 6.2 mg/kg, i.v. once daily for nine days, nude mice, read-out: DLD-2 percent tumor growth inhibition
  inhibition in vivo at 6.2 mg/kg: 59%
DLD-2 human colon tumor; [5]
  Tumor Growth Inhibition activity against DLD-2 (in words): moderate to excellent

## CS(=O)(=O)O.O=C1c2cc([N+](=O)[O-])cc3c2c(cc2ncccc23)C(=O)N1CCCCNCCCN1C(=O)c2cc([N+](=O)[O-])cc3c2c(cc2ncccc23)C1=O [Example 18, 4-[3-(3-Nitro-8-azaphenanthrene-1,10-dicarboximido)propylamino]-1-(3-nitro-8-azaphenanthrene-1, 10-dicarboximido)butane Hydromethanesulfonate]
[1]; 72 h
  IC50: 0.007 µg/mL
[2]; L1210, 72 h
  IC50: 0.001 µg/mL
DLD-2 human colon tumor; [4]
  inhibition in vivo at 12.5 mg/kg: 84%
DLD-2 human colon tumor; [5]
  Tumor Growth Inhibition activity against DLD-2 (in words): moderate to excellent
Solubility in water
  solubility: 20 µg/mL

## CS(=O)(=O)O.O=C1c2ccccc2C(=O)c2c1cc1c3c(cccc23)C(=O)N(CCCCNCCCN2C(=O)c3cccc4c5c(cc(c34)C2=O)C(=O)c2ccccc2C5=O)C1=O [Example 100, 4-[3-(7,12-Dihydro-7,12-dioxobenz[a]anthracene-4,5-dicarboximido)propylamino]-1-(7,12-dihydro-7,12-dioxobenz[a]anthracene-4,5-dicarboximido)butane Hydromethanesulfonate]
[3]; Mus musculus, iv, 216 h, 20 mg/kg, i.v. once daily for nine days, nude mice, read-out: MX-1 percent tumor growth inhibition
  inhibition in vivo at 20 mg/kg: 24%
[1]; Clone A cells, 72 hr, MTT
  IC50: 0.07 µg/mL
[2]; L1210 cells, 72 hr, MTT
  IC50: 0.014 µg/mL
Solubility in water
  solubility: 160 µg/mL

## CS(=O)(=O)O.CS(=O)(=O)O.Cc1cnc2c(c1)cc1c3c(cc([N+](=O)[O-])cc32)C(=O)N([C@H](C)CNCCNC[C@@H](C)N2C(=O)c3cccc4cc([N+](=O)[O-])cc(c34)C2=O)C1=O [Example 117, (R,R)-1-[2-(3-Nitro-7-methyl-5-azaphenanthrene-1, 10-dicarboximido)propylamino]-2-[2-(3-nitronaphthalene-1,8-dicarboximido)propylamino]ethane Dihydromethanesulfonate]
[3]; [6]
  responders at 6 mg/kg: 100%
[3]; [5]
  Tumor Growth Inhibition activity against MX-1 (in words): moderate to excellent
[1]; 72 h
  IC50: 0.002 µg/mL
[2]; L1210, 72 h
  IC50: 0.036 µg/mL
Solubility in water
  solubility: 8700 µg/mL

## CS(=O)(=O)O.CS(=O)(=O)O.Cc1nc2cc3c4c(cccc4c2[nH]1)C(=O)N(CCCNCCCCN1C(=O)c2cccc4cc([N+](=O)[O-])cc(c24)C1=O)C3=O [Example 140, 4-[3-(2-Methyl-1H-naphth[1,2-d]imidazole-5,6-dicarboximido)propylamino]-1-(3-nitronaphthalene-1,8-dicarboximido)butane Dihydromethanesulfonate]
[1]; Clone A cells, 72 hr, MTT
  IC50: 0.101 µg/mL
[2]; L1210 cells, 72 hr, MTT
  IC50: 0.425 µg/mL
DLD-2 human colon tumor; Mus musculus, DLD2, iv, 216 h, 50 mg/kg, i.v. once daily for nine days, nude mice, read-out: DLD-2 percent tumor growth inhibition
  inhibition in vivo at 50 mg/kg: 0%
Solubility in water
  solubility: 9000 µg/mL
